This passage reports IC50 results from patent US9682141B2, “Combination of kinase inhibitors and uses thereof” (INTELLIKINE LLC, priority 2011, dated 2017).

Holding throughout (assay type): biochemical
Experiment [1] addresses PI3K β (Homo sapiens (Human), UniProt P42338). Put plainly: PI 3-Kinase (human) HTRF assay, p110β/p85α. In general terms: Time-resolved FRET reads energy transfer from a long-lived donor to a nearby acceptor.
The target of experiment [2] is PI3K α (Homo sapiens (Human), UniProt P42336). Kind of experiment: PI 3-Kinase (human) HTRF assay, p110α/p85α.
The target in experiment [3] is PI3K γ (Homo sapiens (Human), UniProt P48736). Kind of experiment: PI 3-Kinase (human) HTRF assay, p110γ. To be noted: read-out: PI3K γ IC50.
Procedure: An exemplary system is PI 3-Kinase (human) HTRF™ Assay from Upstate. […] Briefly, the assay is a time resolved FRET assay that indirectly measures PIP3 product formed by the activity of a PI3-K. The kinase reaction is performed in a microtitre plate (e.g., a 384 well microtitre plate). The total reaction volume is approximately 20 ul per well. In the first step, each well receives 2 ul of test compound in 20% dimethylsulphoxide resulting in a 2% DMSO final concentration. Next, approximately 14.5 ul of a kinase/PIP2 mixture (diluted in 1× reaction buffer) is added per well for a final concentration of 0.25-0.3 ug/ml kinase and 10 μM PIP2. The plate is sealed and incubated for 15 minutes at room temperature. To start the reaction, 3.5 ul of ATP (diluted in 1× reaction buffer) is added per well for a final concentration of 10 μM ATP. The plate is sealed and incubated for 1 hour at room temperature. The reaction is stopped by adding 5 ul of Stop Solution per well and then 5 ul of Detection Mix is added per well. The plate is sealed, incubated for 1 hour at room temperature, and then read on an appropriate plate reader. Data is analyzed and IC50s are generated using GraphPad Prism 5. For PI3K α, β, δ, and γ, the nM concentration of inhibitor to reach IC50 is provided.
The target in experiment [4] is mTORC (Homo sapiens (Human), UniProt P42345). Kind of experiment: mTOR inhibition assay (radiometric or LanthaScreen TR-FRET).
Procedure: The compounds described herein can be tested against recombinant mTOR (Invitrogen) in an assay containing 50 mM HEPES, pH 7.5, 1 mM EGTA, 10 mM MgCl2, 2.5 mM, 0.01% Tween, 10 μM ATP (2.5 μCi of μ-32P-ATP), and 3 μg/mL BSA. Rat recombinant PHAS-1/4EBP1 (Calbiochem; 2 mg/mL) is used as a substrate. Reactions are terminated by spotting onto nitrocellulose, which is washed with 1M NaCl/1% phosphoric acid (approximately 6 times, 5-10 minutes each). Sheets are dried and the transferred radioactivity quantitated by phosphorimaging.
For instance, one can use Invitrogen's LanthaScreen™ Kinase assay to test the inhibitors of mTOR disclosed herein. This assay is a time resolved FRET platform that measures the phosphorylation of GFP labeled 4EBP1 by mTOR kinase. The kinase reaction is performed in a white 384 well microtitre plate. The total reaction volume is 20 ul per well and the reaction buffer composition is 50 mM HEPES pH7.5, 0.01% Polysorbate 20, 1 mM EGTA, 10 mM MnCl2, and 2 mM DTT. In the first step, each well receives 2 ul of test compound in 20% dimethylsulphoxide resulting in a 2% DMSO final concentration. Next, 8 ul of mTOR diluted in reaction buffer is added per well for a 60 ng/ml final concentration. To start the reaction, 10 ul of an ATP/GFP-4EBP1 mixture (diluted in reaction buffer) is added per well for a final concentration of 10 μM ATP and 0.5 μM GFP-4EBP1. The plate is sealed and incubated for 1 hour at room temperature. […] The plate is sealed, incubated for 1 hour at room temperature, and then read on a plate reader set up for LanthaScreen™ TR-FRET. Data is analyzed and IC50s are generated using GraphPad Prism 5.
The target in experiment [5] is PI3K δ (Homo sapiens (Human), UniProt O00329). Kind of experiment: PI 3-Kinase (human) HTRF assay, p110δ/p85α.

pIC50: −log10 of the molar value.

Chain of PI3K α (P42336 whole entry): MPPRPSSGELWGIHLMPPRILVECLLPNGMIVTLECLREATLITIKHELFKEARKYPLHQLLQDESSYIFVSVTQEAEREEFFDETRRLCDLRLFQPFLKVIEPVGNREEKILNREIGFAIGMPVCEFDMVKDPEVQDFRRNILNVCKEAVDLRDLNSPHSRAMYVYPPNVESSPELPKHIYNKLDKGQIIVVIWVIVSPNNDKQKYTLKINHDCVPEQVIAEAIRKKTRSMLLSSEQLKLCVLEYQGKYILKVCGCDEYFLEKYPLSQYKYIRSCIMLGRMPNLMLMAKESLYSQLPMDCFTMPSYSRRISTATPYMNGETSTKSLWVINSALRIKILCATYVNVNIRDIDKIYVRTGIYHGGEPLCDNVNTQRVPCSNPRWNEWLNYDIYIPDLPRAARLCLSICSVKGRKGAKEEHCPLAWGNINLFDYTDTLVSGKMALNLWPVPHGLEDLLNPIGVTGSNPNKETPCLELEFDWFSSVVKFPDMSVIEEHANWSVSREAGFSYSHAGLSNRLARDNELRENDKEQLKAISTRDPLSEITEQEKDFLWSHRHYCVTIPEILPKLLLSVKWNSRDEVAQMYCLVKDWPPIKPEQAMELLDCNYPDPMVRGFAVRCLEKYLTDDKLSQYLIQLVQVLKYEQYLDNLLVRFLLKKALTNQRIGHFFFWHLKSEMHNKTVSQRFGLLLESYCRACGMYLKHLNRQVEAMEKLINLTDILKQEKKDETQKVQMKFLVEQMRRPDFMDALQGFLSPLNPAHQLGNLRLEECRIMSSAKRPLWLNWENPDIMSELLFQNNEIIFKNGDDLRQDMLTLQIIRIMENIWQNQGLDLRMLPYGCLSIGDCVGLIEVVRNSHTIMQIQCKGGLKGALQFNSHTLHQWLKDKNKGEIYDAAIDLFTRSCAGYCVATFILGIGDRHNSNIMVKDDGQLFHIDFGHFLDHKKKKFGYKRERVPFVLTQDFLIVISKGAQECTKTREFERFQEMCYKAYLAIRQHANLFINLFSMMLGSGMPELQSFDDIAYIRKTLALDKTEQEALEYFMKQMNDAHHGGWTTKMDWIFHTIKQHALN
Chain of PI3K α (P27986 whole entry partner): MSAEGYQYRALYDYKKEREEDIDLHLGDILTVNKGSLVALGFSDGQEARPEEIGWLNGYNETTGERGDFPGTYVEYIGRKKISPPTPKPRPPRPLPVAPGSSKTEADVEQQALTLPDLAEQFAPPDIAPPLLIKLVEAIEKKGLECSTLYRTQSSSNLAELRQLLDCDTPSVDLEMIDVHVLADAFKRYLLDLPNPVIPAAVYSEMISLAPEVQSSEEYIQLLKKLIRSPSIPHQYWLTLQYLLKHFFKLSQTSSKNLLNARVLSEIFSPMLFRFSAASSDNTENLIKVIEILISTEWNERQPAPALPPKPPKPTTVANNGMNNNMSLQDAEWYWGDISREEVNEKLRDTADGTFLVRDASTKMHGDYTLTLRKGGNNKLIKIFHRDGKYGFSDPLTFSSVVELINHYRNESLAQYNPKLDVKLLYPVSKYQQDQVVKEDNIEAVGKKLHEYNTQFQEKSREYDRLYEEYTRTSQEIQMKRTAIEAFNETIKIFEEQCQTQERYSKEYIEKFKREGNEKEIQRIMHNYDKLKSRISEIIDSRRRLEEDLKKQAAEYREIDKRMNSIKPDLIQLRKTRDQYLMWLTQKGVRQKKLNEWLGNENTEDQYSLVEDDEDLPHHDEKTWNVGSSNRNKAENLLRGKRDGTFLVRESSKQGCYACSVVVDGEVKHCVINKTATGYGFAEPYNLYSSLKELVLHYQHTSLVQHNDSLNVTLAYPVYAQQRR
Chain of PI3K γ (P48736 whole entry): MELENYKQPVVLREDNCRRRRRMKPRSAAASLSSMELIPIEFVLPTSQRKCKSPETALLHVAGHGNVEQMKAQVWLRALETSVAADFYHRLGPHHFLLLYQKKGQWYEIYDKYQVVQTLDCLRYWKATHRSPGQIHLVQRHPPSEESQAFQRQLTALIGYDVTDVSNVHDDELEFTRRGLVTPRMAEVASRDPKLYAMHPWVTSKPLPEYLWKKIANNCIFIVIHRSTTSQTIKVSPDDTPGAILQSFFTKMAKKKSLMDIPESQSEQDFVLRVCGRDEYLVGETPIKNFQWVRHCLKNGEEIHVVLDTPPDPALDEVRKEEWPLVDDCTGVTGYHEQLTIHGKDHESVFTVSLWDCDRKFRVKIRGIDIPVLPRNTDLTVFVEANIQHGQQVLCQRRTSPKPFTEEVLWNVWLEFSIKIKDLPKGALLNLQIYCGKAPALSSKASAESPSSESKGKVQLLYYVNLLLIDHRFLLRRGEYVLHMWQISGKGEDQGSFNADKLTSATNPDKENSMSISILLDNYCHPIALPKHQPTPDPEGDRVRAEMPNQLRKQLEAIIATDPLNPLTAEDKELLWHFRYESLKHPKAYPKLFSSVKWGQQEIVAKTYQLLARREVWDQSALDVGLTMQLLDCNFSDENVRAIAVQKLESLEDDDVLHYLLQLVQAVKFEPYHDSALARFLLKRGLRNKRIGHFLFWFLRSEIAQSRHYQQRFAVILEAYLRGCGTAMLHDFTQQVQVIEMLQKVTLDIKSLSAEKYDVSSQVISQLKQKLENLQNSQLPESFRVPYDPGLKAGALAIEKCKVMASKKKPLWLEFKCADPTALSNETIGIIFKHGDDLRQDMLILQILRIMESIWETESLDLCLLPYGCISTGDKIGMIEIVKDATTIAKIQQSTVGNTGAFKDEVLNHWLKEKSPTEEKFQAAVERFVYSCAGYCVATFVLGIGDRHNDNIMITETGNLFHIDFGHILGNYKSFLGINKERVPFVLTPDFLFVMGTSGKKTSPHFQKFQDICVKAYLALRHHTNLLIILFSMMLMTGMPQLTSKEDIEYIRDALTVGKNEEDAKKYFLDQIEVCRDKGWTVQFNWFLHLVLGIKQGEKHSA
Chain of mTORC (P42345 1360-2549): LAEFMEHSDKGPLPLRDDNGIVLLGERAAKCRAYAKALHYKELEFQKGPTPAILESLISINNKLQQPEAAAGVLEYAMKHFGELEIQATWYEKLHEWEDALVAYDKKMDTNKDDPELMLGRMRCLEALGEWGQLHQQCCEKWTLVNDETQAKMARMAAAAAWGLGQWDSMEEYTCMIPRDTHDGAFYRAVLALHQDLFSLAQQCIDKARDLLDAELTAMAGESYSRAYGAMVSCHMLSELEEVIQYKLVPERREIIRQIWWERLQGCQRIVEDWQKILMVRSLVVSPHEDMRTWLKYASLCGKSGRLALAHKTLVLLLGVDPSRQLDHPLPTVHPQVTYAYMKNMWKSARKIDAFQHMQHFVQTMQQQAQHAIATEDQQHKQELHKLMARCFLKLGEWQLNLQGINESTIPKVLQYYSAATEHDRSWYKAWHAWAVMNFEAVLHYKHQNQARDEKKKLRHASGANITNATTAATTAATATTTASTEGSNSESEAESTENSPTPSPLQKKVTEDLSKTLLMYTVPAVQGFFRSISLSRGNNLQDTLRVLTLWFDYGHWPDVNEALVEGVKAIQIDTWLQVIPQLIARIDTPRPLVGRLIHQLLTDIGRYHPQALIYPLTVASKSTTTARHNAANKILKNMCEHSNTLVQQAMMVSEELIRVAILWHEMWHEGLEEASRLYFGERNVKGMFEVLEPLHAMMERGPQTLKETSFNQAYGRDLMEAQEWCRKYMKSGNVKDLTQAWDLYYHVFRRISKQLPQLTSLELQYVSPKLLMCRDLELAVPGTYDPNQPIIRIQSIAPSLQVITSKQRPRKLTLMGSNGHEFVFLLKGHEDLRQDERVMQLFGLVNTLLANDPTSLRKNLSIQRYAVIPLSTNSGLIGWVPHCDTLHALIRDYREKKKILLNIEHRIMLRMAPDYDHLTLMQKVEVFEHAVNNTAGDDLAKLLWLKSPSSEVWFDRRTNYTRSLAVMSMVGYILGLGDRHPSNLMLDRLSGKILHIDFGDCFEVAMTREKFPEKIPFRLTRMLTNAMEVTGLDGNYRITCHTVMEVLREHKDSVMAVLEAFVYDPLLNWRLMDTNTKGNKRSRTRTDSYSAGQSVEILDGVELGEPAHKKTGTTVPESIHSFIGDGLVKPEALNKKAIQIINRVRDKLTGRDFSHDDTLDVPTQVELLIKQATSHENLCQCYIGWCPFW

As to `Nc1nc2cc(-c3ccc4ncc(N5CC(N6CCN(CC7CC7)CC6)C5)cc4n3)ccc2o1`, the pIC50 is greater than 5.00 in experiment [1]; greater than 7.00 in experiment [2]; greater than 5.00 in experiment [3]; less than 5.00 in experiment [4]; greater than 6.00 in experiment [5].

In the case of `C[C@H]1CN(C2CN(c3cnc4ccc(-c5ccc6oc(N)nc6c5)nc4c3)C2)CCN1C`, the negative logarithm of the IC50 (pIC50) in experiment [1] was greater than 5.00; in experiment [2], greater than 7.00; in experiment [3], greater than 5.00; in experiment [4], less than 5.00; in experiment [5] it was greater than 6.00.

Take `CN1CCN(C(=O)C2CN(c3cnc4ccc(-c5ccc6oc(N)nc6c5)cc4n3)C2)CC1` [drawing 360]: the negative logarithm of the IC50 (pIC50) in experiment [1] was greater than 6.00; in experiment [2], greater than 7.00; in experiment [3] it was greater than 5.00; in experiment [4], greater than 5.00; in experiment [5], greater than 6.00.

As for `Cc1nccn1C1CN(c2cnc3ccc(-c4ccc5oc(N)nc5c4)nc3c2)C1`, the pIC50 in experiment [1] is greater than 5.00; in experiment [2] it was greater than 7.00; in experiment [3], greater than 7.00; in experiment [4], less than 5.00; in experiment [5], greater than 6.00.

Take `Nc1nc2cc(-c3ccc4ncc(-c5ccc6nc(N)oc6c5)n4c3)ccc2o1` [Compound 50]: the negative-log IC50 (pIC50) in experiment [2] was greater than 7.00; in experiment [3], greater than 7.00; in experiment [4] it was less than 5.00; in experiment [5], greater than 5.00.

Regarding `Nc1ccc2cc(-c3ccc4nccc(-c5ccncc5)c4c3)ccc2n1` [Compound 5], the negative logarithm of the IC50 (pIC50) was less than 5.00 in experiment [1]; greater than 6.00 in experiment [2]; greater than 6.00 in experiment [3]; greater than 6.00 in experiment [4]; greater than 5.00 in experiment [5].

Regarding `CC(C)(N)C(=O)N1CCN(c2cnc3ccc(-c4ccc5oc(N)nc5c4)nc3n2)CC1`, the negative-log IC50 (pIC50) in experiment [1] is greater than 5.00; in experiment [2] it was greater than 7.00; in experiment [3] it was greater than 5.00; in experiment [4] it was less than 5.00; in experiment [5], greater than 5.00.

With `Nc1nc2cc(-c3ccc4ncc(N5CCN(C(=O)C6(N)CC6)CC5)nc4n3)ccc2o1`, the negative-log IC50 (pIC50) was greater than 5.00 in experiment [1]; greater than 7.00 in experiment [2]; greater than 7.00 in experiment [3]; greater than 5.00 in experiment [4]; greater than 5.00 in experiment [5].

With `Nc1nc2cc(-c3ccc4ncc(-c5ccnc(N6CCOCC6)c5)n4c3)ccc2o1` [Compound 52], the pIC50 in experiment [2] is greater than 7.00; in experiment [3], greater than 7.00; in experiment [4] it was greater than 5.00; in experiment [5], greater than 7.00.

For the molecule `Nc1nc2cc(-c3ccc4ncc(N5CCOCC5)nc4c3)ccc2o1`, the pIC50 in experiment [1] was greater than 6.00; in experiment [2], greater than 7.00; in experiment [3] it was greater than 7.00; in experiment [4], greater than 5.00; in experiment [5], less than 5.00.

Consider `N#Cc1cnc2ccc(-c3ccc4oc(N)nc4c3)cc2c1-c1ccncc1` [Compound 46], for which the pIC50 in experiment [2], in experiment [3], in experiment [4] and in experiment [5] was greater than 7.00 in each case.

Turning to `Nc1nc2cc(-c3ccc4ncc(N5CC(N6CCN(CCO)CC6)C5)nc4n3)ccc2o1`, the negative logarithm of the IC50 (pIC50) was greater than 5.00 in experiment [1]; greater than 7.00 in experiment [2]; greater than 5.00 in experiment [3]; less than 5.00 in experiment [4]; greater than 5.00 in experiment [5].

As for `Cn1cc(-c2cnc3ccc(-c4ccc5oc(N)nc5c4)cn23)cn1` [Compound 41], the negative logarithm of the IC50 (pIC50) was greater than 7.00 in experiment [2], greater than 6.00 in experiment [3], greater than 5.00 in experiment [4] and greater than 6.00 in experiment [5].

For `Nc1nc2cc(-c3ccc4ncc(N5C6CCC5COC6)nc4n3)ccc2o1`, the pIC50 in experiment [1] was less than 5.00; in experiment [2], greater than 7.00; in experiment [3] it was greater than 7.00; in experiment [4], less than 5.00; in experiment [5], less than 5.00.

Turning to `Cn1cc(-c2ccnc3ccc(-c4ccc5oc(N)nc5c4)cc23)cn1` [Compound 26], the pIC50 in experiment [2] is greater than 7.00; in experiment [3], greater than 7.00; in experiment [4] it was greater than 6.00; in experiment [5] it was greater than 7.00.

As for `CN1CCN(C2CN(c3cnc4ccc(-c5ccc6oc(N)nc6c5)nc4n3)C2)CC1`, the negative-log IC50 (pIC50) in experiment [1] is greater than 5.00; in experiment [2], greater than 7.00; in experiment [3] it was less than 5.00; in experiment [4], less than 5.00; in experiment [5], greater than 6.00.

Turning to `Nc1nc2cc(-c3ccc4ncc(OC5CCOCC5)nc4c3)ccc2o1` [Compound 49], the negative-log IC50 (pIC50) in experiment [2] is greater than 7.00; in experiment [3], greater than 6.00; in experiment [4] it was greater than 5.00; in experiment [5] it was greater than 5.00.

`Nc1nc2cc(-c3ccc4ncc(-c5cccnc5)nc4c3)ccc2o1`: the pIC50 was less than 5.00 in experiment [1]; greater than 7.00 in experiment [2]; greater than 6.00 in experiment [3]; greater than 5.00 in experiment [4]; less than 5.00 in experiment [5].

On to `N#Cc1cnc2ccc(-c3ccc4oc(N)nc4c3)cc2c1`, for which the pIC50 in experiment [1] was less than 5.00; in experiment [2], greater than 6.00; in experiment [3], greater than 6.00; in experiment [4], greater than 5.00; in experiment [5], less than 5.00.

For `Nc1nc2cc(-c3ccc4ncc(N5CC(N6CCN(CCO)CC6)C5)cc4n3)ccc2o1`, the pIC50 in experiment [1] is greater than 5.00; in experiment [2], greater than 7.00; in experiment [3], greater than 6.00; in experiment [4], less than 5.00; in experiment [5] it was greater than 6.00.

Take `CS(=O)(=O)N1CCN(Cc2cc3nc(-c4ccc5oc(N)nc5c4)nc(N4CCOCC4)c3s2)CC1`: the pIC50 in experiment [1] is greater than 6.00; in experiment [2] it was greater than 7.00; in experiment [3], greater than 7.00; in experiment [4], greater than 6.00; in experiment [5] it was greater than 6.00.

For `CCN1CCN(C2CN(c3cnc4ccc(-c5ccc6oc(N)nc6c5)nc4n3)C2)CC1`, the pIC50 is greater than 5.00 in experiment [1]; greater than 7.00 in experiment [2]; greater than 5.00 in experiment [3]; greater than 5.00 in experiment [4]; greater than 5.00 in experiment [5].

As for `Nc1nc2cc(-c3ccc4ncnc(OC5CCOCC5)c4c3)ccc2o1` [Compound 47], the pIC50 in experiment [1] is greater than 6.00; in experiment [2], greater than 7.00; in experiment [3] it was greater than 6.00; in experiment [4], greater than 7.00; in experiment [5] it was greater than 6.00.

As to `C[C@H]1CN(c2cnc3ccc(-c4ccc5oc(N)nc5c4)nc3c2)CCN1`, the negative-log IC50 (pIC50) is greater than 7.00 in experiment [1]; greater than 7.00 in experiment [2]; greater than 6.00 in experiment [3]; less than 5.00 in experiment [4]; greater than 5.00 in experiment [5].

Turning to `Nc1nc2cc(-c3ccc4ncc(N5CC(N6CCOCC6)C5)nc4n3)ccc2o1`, the negative-log IC50 (pIC50) was less than 5.00 in experiment [1]; greater than 7.00 in experiment [2]; greater than 5.00 in experiment [3]; greater than 5.00 in experiment [4]; greater than 5.00 in experiment [5].

As to `CN(C)CC(=O)N1CCN(c2cnc3ccc(-c4ccc5oc(N)nc5c4)cc3n2)CC1` [drawing 329], the pIC50 in experiment [1] was greater than 6.00; in experiment [2], greater than 7.00; in experiment [3] it was greater than 6.00; in experiment [4] it was less than 5.00; in experiment [5], greater than 6.00.

Regarding `Nc1nc2cc(-c3ccc4ncc(N5CCC(N6CCOCC6)CC5)nc4c3)ccc2o1`, the pIC50 in experiment [1] was greater than 6.00; in experiment [2], greater than 7.00; in experiment [3], greater than 6.00; in experiment [4], less than 5.00; in experiment [5] it was greater than 6.00.

Take `Nc1nc2cc(-c3ccc4ncc(=O)[nH]c4c3)ccc2o1`: the pIC50 is greater than 6.00 in experiment [1]; greater than 7.00 in experiment [2]; greater than 7.00 in experiment [3]; greater than 6.00 in experiment [4]; less than 5.00 in experiment [5].

`Nc1nc2cc(-c3ccc4nccn4c3)ccc2o1` [Compound 40]: the negative-log IC50 (pIC50) in experiment [2] was greater than 5.00; in experiment [3] it was greater than 5.00; in experiment [4], greater than 5.00; in experiment [5], less than 5.00.

With `CN1CC2CN(c3cnc4ccc(-c5ccc6oc(N)nc6c5)nc4n3)CC2C1` (centres unmarked), the pIC50 is greater than 6.00 in experiment [1]; greater than 7.00 in experiment [2]; greater than 5.00 in experiment [3]; less than 5.00 in experiment [4]; greater than 6.00 in experiment [5].

As for `CC1(C)CN(C2CN(c3cnc4ccc(-c5ccc6oc(N)nc6c5)nc4n3)C2)CCN1`, the pIC50 in experiment [1] is greater than 5.00; in experiment [2], greater than 7.00; in experiment [3], greater than 5.00; in experiment [4] it was less than 5.00; in experiment [5] it was greater than 6.00.

Consider `C[C@H]1COCCN1C1CN(c2cnc3ccc(-c4ccc5oc(N)nc5c4)nc3n2)C1`, for which the pIC50 was less than 5.00 in experiment [1], greater than 7.00 in experiment [2], less than 5.00 in experiment [4] and greater than 5.00 in experiment [5].

With `Nc1nc2cc(-c3ccc4ncn(C5CCOCC5)c(=O)c4c3)ccc2o1`, the pIC50 in experiment [2] was greater than 6.00; in experiment [3], less than 5.00; in experiment [4] it was less than 5.00; in experiment [5], less than 5.00.

On to `CN1CCC(n2cnc3ccc(-c4ccc5oc(N)nc5c4)cc3c2=O)CC1` [Compound 36], for which the pIC50 is greater than 7.00 in experiment [2], less than 5.00 in experiment [3], greater than 5.00 in experiment [4] and greater than 5.00 in experiment [5].

Take `CN1CCN(C(=O)c2cnc3ccc(-c4ccc5oc(N)nc5c4)cn23)CC1` [Compound 44]: the pIC50 in experiment [2] was greater than 7.00; in experiment [3] it was greater than 5.00; in experiment [4], greater than 5.00; in experiment [5], greater than 5.00.

On to `CN1CCC(Nc2ncnc3ccc(-c4ccc5oc(N)nc5c4)cc23)CC1` [Compound 35], for which the negative-log IC50 (pIC50) is greater than 7.00 in experiment [2], greater than 7.00 in experiment [3], greater than 5.00 in experiment [4] and greater than 7.00 in experiment [5].

`CN1CCN(c2ccc(-c3cnc4ccc(-c5ccc6oc(N)nc6c5)cn34)cn2)CC1` [Compound 42]: the negative-log IC50 (pIC50) is greater than 7.00 in experiment [2], greater than 6.00 in experiment [3], less than 5.00 in experiment [4] and greater than 6.00 in experiment [5].

Turning to `C[C@@H]1CN(C2CN(c3cnc4ccc(-c5ccc6oc(N)nc6c5)nc4c3)C2)CCN1C`, the pIC50 was greater than 5.00 in experiment [1], greater than 7.00 in experiment [2], less than 5.00 in experiment [4] and greater than 6.00 in experiment [5].

For orientation: pIC50 means −log10 of the IC50, conventionally taken in molar units.
